Source: patent publication US20250059174A1, “Pharmaceutical Compounds and Compositions as C-Kit Kinase Inhibitors” (Enanta Pharmaceuticals, Inc., priority 2023, published 2025)
pEC50, pIC50: −log10 of the molar value.

Experiments:
M-07e cells = experiment: M-07e cellular assay (SCF-mediated cell proliferation); format: cell-based; details: Homo sapiens, 72 hours, CellTiter Glo
Summary of the method: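 Readout came from CellTiter Glo after 72 h of compound treatment in SCF (EC90)-stimulated, pre-starved M-07e cells at 37 °C.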

[1] = target: Recombinant human c-KIT kinase (Homo sapiens (Human), UniProt P10721); experiment: c-KIT kinase chemiluminescence assay (ADP-Glo); format: biochemical; details: ATP 50 μM
Summary of the method: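 Recombinant human c-KIT preincubated 30 min at RT in 40 mM Tris pH 7.5, 20 mM MgCl2, 0.1 mg/mL BSA, 50 μM DTT, then reacted 2 h at RT with ATP and polyEY substrate. ADP-Glo luminescence readout; activity normalized to high/low controls, IC50 and Hill coefficient from inhibitor-versus-normalized-response fit.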

Chain of Recombinant human c-KIT kinase (P10721 26-976): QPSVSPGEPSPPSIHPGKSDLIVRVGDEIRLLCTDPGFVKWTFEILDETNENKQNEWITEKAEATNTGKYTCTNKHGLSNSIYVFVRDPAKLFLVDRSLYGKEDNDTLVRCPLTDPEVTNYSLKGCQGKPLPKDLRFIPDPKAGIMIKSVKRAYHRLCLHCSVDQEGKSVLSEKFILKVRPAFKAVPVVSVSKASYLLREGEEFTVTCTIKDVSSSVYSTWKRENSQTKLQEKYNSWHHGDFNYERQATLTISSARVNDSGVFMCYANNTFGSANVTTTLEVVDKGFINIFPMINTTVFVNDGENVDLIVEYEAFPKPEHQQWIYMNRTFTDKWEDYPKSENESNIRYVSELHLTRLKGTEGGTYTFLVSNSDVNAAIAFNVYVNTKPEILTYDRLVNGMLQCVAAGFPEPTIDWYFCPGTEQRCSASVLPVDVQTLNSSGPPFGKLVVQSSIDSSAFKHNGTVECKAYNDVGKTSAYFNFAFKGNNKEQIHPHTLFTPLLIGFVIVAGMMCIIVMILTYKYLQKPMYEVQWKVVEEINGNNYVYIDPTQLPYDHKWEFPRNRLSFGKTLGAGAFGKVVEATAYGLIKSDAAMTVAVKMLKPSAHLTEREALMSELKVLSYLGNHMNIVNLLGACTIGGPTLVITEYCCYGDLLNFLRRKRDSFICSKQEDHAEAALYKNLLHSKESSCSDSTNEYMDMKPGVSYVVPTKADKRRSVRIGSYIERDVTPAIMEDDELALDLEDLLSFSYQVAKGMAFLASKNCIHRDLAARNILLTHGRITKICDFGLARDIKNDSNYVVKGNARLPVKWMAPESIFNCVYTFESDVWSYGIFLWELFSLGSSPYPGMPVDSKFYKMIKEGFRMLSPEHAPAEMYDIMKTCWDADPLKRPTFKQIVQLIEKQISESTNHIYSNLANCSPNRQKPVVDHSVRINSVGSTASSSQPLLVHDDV

SMILES	pIC50 [1]	pEC50 (M-07e cells)
Cc1ncc(-c2noc([C@H]3C[C@@H]3F)n2)cc1NC(=O)c1cnn2cc(-c3cn(C(F)F)nn3)ccc12 [Example 132-5]	6.00 to 7.00	> 7.00
O=C(Nc1cc(-c2noc([C@H]3C[C@@H]3F)n2)ccc1C(F)F)c1cnn2ccc(N3CC4(COC4)C3)cc12 [Example 281-116]	6.00 to 7.00	6.00 to 7.00
Cc1ccc(-c2noc([C@H]3C[C@@H]3F)n2)cc1NC(=O)c1cnn2ccc(N3CC4CCC3CN4C(=O)OC(C)(C)C)cc12 (stereo partly shown) [Example 210]	6.00 to 7.00	6.00 to 7.00
Cc1ncc(-c2ccn3ncc(C(=O)Nc4cc(-c5noc([C@H]6C[C@@H]6F)n5)ccc4C)c3c2)cn1 [Example 163]	> 7.00	> 7.00
CCC1(O)CC2(CN(c3ccn4ncc(C(=O)Nc5cc(-c6noc([C@H]7C[C@@H]7F)n6)ccc5C)c4c3)C2)C1 [Example 240]	> 7.00	> 7.00
Cc1ccc(-c2noc([C@H]3C[C@@H]3F)n2)cc1NC(=O)c1cnn2ccc(-c3ccc(N4CC5(COC5)C4)nc3C)cc12 [Example 171-19]	> 7.00	> 7.00
Cc1ncc(-c2nnn(C(C)C)n2)cc1NC(=O)c1cnn2ccc(N3CC4(C3)CC(O)(C(F)F)C4)cc12 [Example 312-6]	< 6.00	> 7.00
Cc1ccc(-c2noc([C@H]3C[C@@H]3F)n2)cc1NC(=O)c1cnc(-c2ccc(N)nc2)o1 [Example 287]	6.00 to 7.00	6.00 to 7.00
Cc1ccc(-c2noc([C@H]3C[C@@H]3F)n2)cc1NC(=O)c1cnn(-c2ccccc2)c1C [Example 98]	< 6.00	< 6.00
Cc1ccc(-c2noc([C@H]3C[C@@H](OC(F)(F)F)C3)n2)cc1NC(=O)c1cnc(-c2ccc3c(c2)CC(=O)N3)o1 [Example 308-3]	> 7.00	> 7.00
Cc1ccc(-c2ncc(OC(F)(F)F)cn2)cc1NC(=O)c1cnn2ccc(-c3c(C)nc(N)nc3C)cc12 [Example 367]	6.00 to 7.00	6.00 to 7.00
CC(=O)Nc1ncc(C(=O)Nc2cc(-c3noc([C@H]4C[C@@H]4F)n3)ccc2C)s1 [Example 38]	6.00 to 7.00	6.00 to 7.00
Cc1ccc(-c2noc([C@H]3C[C@@H]3F)n2)cc1NC(=O)c1cncn1C [Example 2]	< 6.00	< 6.00
COC(=O)N1CCC(c2nc(-c3ccc(C)c(NC(=O)c4cnn5ccc(N6CC7(C6)CC(O)(C(F)F)C7)cc45)c3)no2)CC1 [Example 281-134]	> 7.00	> 7.00
O=C(Nc1cc(-c2noc([C@H]3C[C@@H]3F)n2)ccc1C1CC1)c1cnn2ccc(N3CC4(COC4)C3)cc12 [Example 281-94]	< 6.00	< 6.00
Cc1ccc(-c2cnc(C3CC3)cn2)cc1NC(=O)c1cnn2ccc(N3CC4(COC4)C3)cc12 [Example 341]	> 7.00	> 7.00
Cc1ccc(-c2noc([C@H]3C[C@@H]3F)n2)cc1NC(=O)c1cnn2ccc(N3CCC34COC4)cc12 [Example 176]	> 7.00	> 7.00
O=C(Nc1cc(-c2noc(N3CC(O)(C(F)(F)F)C3)n2)ccc1Cl)c1cnn2ccc(N3CC4(C3)CC(O)(C(F)F)C4)cc12 [Example 281-125]	> 7.00	> 7.00
Cc1ccc(-c2noc([C@H]3C[C@@H]3F)n2)cc1NC(=O)c1cnn2ccc(N3CC(C(=O)OC(C)(C)C)C3)cc12 [Example 208]	6.00 to 7.00	6.00 to 7.00
Cc1ccc(-c2noc([C@H]3C[C@@H]3F)n2)cc1NC(=O)c1cnc(-c2ccc3nccn3c2)o1 [Example 308-18]	6.00 to 7.00	6.00 to 7.00
O=C(Nc1cc(-c2noc(N3CC(F)(F)C3)n2)ccc1Cl)c1cnn2ccc(N3CC4(COC4)C3)cc12 [Example 281-124]	6.00 to 7.00	> 7.00
Cc1ccc(-c2noc([C@H]3C[C@@H]3F)n2)cc1NC(=O)c1cnn2ccc(-c3nnn(C)n3)cc12 [Example 131]	6.00 to 7.00	> 7.00
Cc1ccc(-c2noc([C@H]3C[C@@H]3F)n2)cc1NC(=O)c1cnn2ccc(-n3cc(N)cn3)cc12 [Example 237]	> 7.00	6.00 to 7.00
[2H]C([2H])([2H])n1nnnc1-c1cnc(C)c(NC(=O)c2cnn3ccc(N4CC5(C4)CC(O)(C(F)F)C5)cc23)c1 [Example 312-3]	< 6.00	< 6.00
Cc1ccc(-c2noc([C@H]3C[C@H](OC(F)F)C3)n2)cc1NC(=O)c1cnn2ccc(N3CC4(COC4)C3)cc12 [Example 247]	> 7.00	> 7.00
Cc1ccc(-c2ccn3ncc(C(=O)Nc4cc(-c5noc([C@H]6C[C@@H]6F)n5)ccc4C)c3c2)c(C)n1 [Example 171-15]	> 7.00	> 7.00
Cc1ncc(-c2ncc(C(F)F)cn2)cc1NC(=O)c1cnn2ccc(N3CC4(C3)CC(O)(C(F)F)C4)cc12 [Example 327]	6.00 to 7.00	6.00 to 7.00
Cc1ccc(-c2noc([C@H]3C[C@@H]3F)n2)cc1NC(=O)c1cnc(-c2ccc3c(c2)C(C)(C)C(=O)N3)o1 [Example 308-37]	6.00 to 7.00	6.00 to 7.00
Cc1ccc(-c2ccc(C(C)C)cn2)cc1NC(=O)c1cnn2ccc(N3CC4(COC4)C3)cc12 [Example 349]	> 7.00	> 7.00
Cc1ccc(-c2noc([C@H]3C[C@@H]3F)n2)cc1NC(=O)c1cnn2ccc(N3CCNC[C@H]3C)cc12 [Example 195]	> 7.00	6.00 to 7.00

More lines, main results first:

pIC50 [1]	SMILES	pEC50 (M-07e cells)
> 7.00	Cc1ccc(-c2noc([C@H]3C[C@@H]3F)n2)cc1NC(=O)c1cnn2ccc(-c3c(C)n[nH]c3C)cc12 [Example 161]	> 7.00
> 7.00	Cc1ccc(-c2noc([C@H]3C[C@@H](OC(F)F)C3(C)C)n2)cc1NC(=O)c1cnn2ccc(N3CC4(COC4)C3)cc12 [Example 250]	6.00 to 7.00
> 7.00	Cc1ccc(-c2noc([C@H]3C[C@@H]3F)n2)cc1NC(=O)c1cnn2ccc(N3CC(C(=O)NC4CC4)C3)cc12 [Example 241-10]	> 7.00
6.00 to 7.00	Cc1ccc(-c2noc([C@H]3C[C@@H]3F)n2)cc1NC(=O)c1cnn2ccc(N3CC[C@@H](N)C3)cc12 [Example 197]	> 7.00
< 6.00	Cc1ccc(-c2noc([C@H]3C[C@@H]3F)n2)cc1NC(=O)c1cnc(-c2cccc3c2NC(=O)C3)o1 [Example 308-33]	< 6.00
6.00 to 7.00	Cc1ccc(-c2noc([C@H]3C[C@@H]3F)n2)cc1NC(=O)c1cnc(-c2ccc3c(c2)NC(=O)C3)o1 [Example 301]	< 6.00
> 7.00	COCCn1cc(-c2ccc3c(C(=O)Nc4cc(-c5noc([C@H]6C[C@@H]6F)n5)ccc4C)cnn3c2)nn1 [Example 116]	> 7.00
> 7.00	Cc1ccc(-c2noc([C@H]3C[C@@H]3F)n2)cc1NC(=O)c1cnn2ccc(Nc3cn[nH]c3)cc12 [Example 238]	> 7.00
< 6.00	Cc1ncc(-c2noc(C3CN(C(=O)C4(F)CC4)C3)n2)cc1NC(=O)c1cnn2ccc(N3CC4(COC4)C3)cc12 [Example 281-85]	6.00 to 7.00
> 7.00	Cc1ccc(-c2noc([C@H]3C[C@@H]3F)n2)cc1NC(=O)c1cnn2ccc(N3CC(C(F)(F)F)C3)cc12 [Example 225]	6.00 to 7.00
6.00 to 7.00	Cc1ncc(-c2noc(C3(F)CN(C(=O)C(C)(F)F)C3)n2)cc1NC(=O)c1cnn2ccc(N3CC4(C3)CC(O)(C(F)F)C4)cc12 [Example 281-103]	< 6.00
> 7.00	Cc1ncc(-c2noc([C@H]3C[C@@H](C(F)(F)F)C3)n2)cc1NC(=O)c1cnn2ccc(N3CC4(C3)CC(O)(C(F)F)C4)cc12 [Example 281-62]	> 7.00
6.00 to 7.00	COC(=O)N1CC(c2nc(-c3cnc(C)c(NC(=O)c4cnn5ccc(N6CC7(COC7)C6)cc45)c3)no2)C1 [Example 281-77]	6.00 to 7.00
> 7.00	Cc1ccc(-c2noc([C@H]3C[C@@H]3F)n2)cc1NC(=O)c1cnc2n1C(C)c1ccccc1-2 (stereo partly shown) [Example 102]	6.00 to 7.00
6.00 to 7.00	Cc1ccc(-c2noc([C@H]3C[C@@H]3F)n2)cc1NC(=O)c1cnn2ccc(-c3c(C)nc(N4CC5(COC5)C4)nc3C)cc12 [Example 171-14]	6.00 to 7.00
> 7.00	Cc1ccc(-c2noc([C@H]3C[C@@H]3F)n2)cc1NC(=O)c1cnn2ccc(-c3cnc(C4CC4)nc3)cc12 [Example 160]	> 7.00
> 7.00	Cc1ccc(-c2noc([C@H]3C[C@@H]3F)n2)cc1NC(=O)c1cnn2ccc(N3CC4(CN(C(=O)C(F)(F)F)C4)C3)cc12 [Example 241-15]	> 7.00
> 7.00	O=C(Nc1cc(-c2noc(C3CC(F)(F)C3)n2)ccc1Cl)c1cnn2ccc(N3CC4(C3)CC(O)(C(F)F)C4)cc12 [Example 281-30]	> 7.00
> 7.00	Cc1ccc(-c2ncc(C3CC3)cn2)cc1NC(=O)c1cnn2ccc(N3CC4(COC4)C3)cc12 [Example 335]	> 7.00
> 7.00	Cc1c(F)cc(-c2noc([C@H]3C[C@@H]3F)n2)cc1NC(=O)c1cnn2ccc(N3CC4(COC4)C3)cc12 [Example 281-54]	> 7.00
< 6.00	Cc1ncc(-c2noc(C3CN(C(=O)C4CC4)C3)n2)cc1NC(=O)c1cnn2ccc(N3CC4(C3)CC(O)(C(F)F)C4)cc12 [Example 281-86]	< 6.00
> 7.00	Cc1ccc(-c2ccc(C3CC3)nc2)cc1NC(=O)c1cnn2ccc(N3CC4(COC4)C3)cc12 [Example 342]	> 7.00
> 7.00	Cc1ccc(-c2noc([C@H]3C[C@@H]3F)n2)cc1NC(=O)c1cnn2ccc(-c3cnn(CC(C)(C)O)c3)cc12 [Example 142]	> 7.00
